Source: PubChem BioAssay AID1963447 (Molecular Pharmacology Branch, DTP, NCI, 2024)
Blank lines part the entries; values can stand above or below the compound they belong to.

Test system: 885512-296-R-J2-PDC complex spheroid growth, % test/control
Assay: Anticancer human tumor 885512-296-R-J2-PDC patient-derived breast carcinoma cell line growth inhibition [Asc]
Settings: for IC50: curve of first compound; for viability, T/C: stronger effect = lower value
Summary of the method: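 Tumor cells were grown as multicellular spheroids with stromal HUVEC and mesenchymal stem cells and treated singly or in combination. Concentrations fell in half-log steps from the clinical Cmax, or from 10 microM where none was known.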

[1] = second compound 0.1 µM, first compound 0.0316 µM
[2] = second compound 0.1 µM, first compound 0.1 µM
[3] = second compound 0.1 µM, first compound 0.316 µM
[4] = second compound 0.1 µM, first compound 1 µM
[5] = second compound 0.316 µM, first compound 0.0316 µM
[6] = second compound 0.316 µM, first compound 0.1 µM
[7] = second compound 0.316 µM, first compound 0.316 µM
[8] = second compound 0.316 µM, first compound 1 µM
[9] = second compound 1 µM, first compound 0.0316 µM
[10] = second compound 1 µM, first compound 0.1 µM
[11] = second compound 1 µM, first compound 0.316 µM
[12] = second compound 1 µM, first compound 1 µM
[13] = second compound 3.16 µM, first compound 0.0316 µM
[14] = second compound 3.16 µM, first compound 0.1 µM
[15] = second compound 10 µM, first compound 0.0316 µM
[16] = second compound 10 µM, first compound 0.1 µM
[17] = second compound 0.1 µM, first compound 0.00316 µM
[18] = second compound 0.1 µM, first compound 0.01 µM
[19] = second compound 0.316 µM, first compound 0.00316 µM
[20] = second compound 0.316 µM, first compound 0.01 µM
[21] = second compound 1 µM, first compound 0.00316 µM
[22] = second compound 1 µM, first compound 0.01 µM
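Note: spheroids exposed to compounds for seven days.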
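Throughout, for viability, T/C: 100% = DMSO vehicle control wells.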

- IC50 (second compound 0.03 µM): 45.1 nM
- IC50 (second compound 0.0949 µM): 44 nM
- IC50 (second compound 0.3 µM): 42.9 nM
- IC50 (second compound 0.949 µM): 39.4 nM
- IC50 (second compound 3 µM): 0.949 nM
Structure (SMILES): NC(=O)C(=Cn1cnc(-c2cc(C(F)(F)F)cc(C(F)(F)F)c2)n1)c1cncnc1 + CCN1C(C(=O)NC23CCC(C(=O)O)(CC2)CC3)C(c2cccc(Cl)c2F)C2(C(=O)Nc3cc(Cl)ccc32)C12CCCCC2
- viability, T/C (second compound 0.03 µM, first compound 0.000949 µM): 108%
- viability, T/C (second compound 0.03 µM, first compound 0.003 µM): 95.1%
- viability, T/C (second compound 0.03 µM, first compound 0.00949 µM): 111%
- viability, T/C (second compound 0.03 µM, first compound 0.03 µM): 72.4%
- viability, T/C (second compound 0.03 µM, first compound 0.0949 µM): 9.51%
- viability, T/C (second compound 0.03 µM, first compound 0.3 µM): 1.11%
- viability, T/C (second compound 0.0949 µM, first compound 0.000949 µM): 98.6%
- viability, T/C (second compound 0.0949 µM, first compound 0.003 µM): 93.7%
- viability, T/C (second compound 0.0949 µM, first compound 0.00949 µM): 113%
- viability, T/C (second compound 0.0949 µM, first compound 0.03 µM): 72.2%
- viability, T/C (second compound 0.0949 µM, first compound 0.0949 µM): 6.79%
- viability, T/C (second compound 0.0949 µM, first compound 0.3 µM): 0.89%
- viability, T/C (second compound 0.3 µM, first compound 0.000949 µM): 74.4%
- viability, T/C (second compound 0.3 µM, first compound 0.003 µM): 91%
- viability, T/C (second compound 0.3 µM, first compound 0.00949 µM): 92.2%
- viability, T/C (second compound 0.3 µM, first compound 0.03 µM): 69.3%
- viability, T/C (second compound 0.3 µM, first compound 0.0949 µM): 6.76%
- viability, T/C (second compound 0.3 µM, first compound 0.3 µM): 0.83%
- viability, T/C (second compound 0.949 µM, first compound 0.000949 µM): 70.3%
- viability, T/C (second compound 0.949 µM, first compound 0.003 µM): 72.2%
- viability, T/C (second compound 0.949 µM, first compound 0.00949 µM): 80.9%
- viability, T/C (second compound 0.949 µM, first compound 0.03 µM): 63.4%
- viability, T/C (second compound 0.949 µM, first compound 0.0949 µM): 6.15%
- viability, T/C (second compound 0.949 µM, first compound 0.3 µM): 1.27%
- viability, T/C (second compound 3 µM, first compound 0.000949 µM): 42.7%
- viability, T/C (second compound 3 µM, first compound 0.003 µM): 48.9%
- viability, T/C (second compound 3 µM, first compound 0.00949 µM): 48.3%
- viability, T/C (second compound 3 µM, first compound 0.03 µM): 55%
- viability, T/C (second compound 3 µM, first compound 0.0949 µM): 4.94%
- viability, T/C (second compound 3 µM, first compound 0.3 µM): 0.76%

- IC50 (second compound 0.1 µM): 1870 nM
- IC50 (second compound 0.316 µM): 1920 nM
- IC50 (second compound 1 µM): 1910 nM
- IC50 (second compound 3.16 µM): 1820 nM
- IC50 (second compound 10 µM): 2140 nM
Structure (SMILES): C=C(F)C(=O)N1CCN(c2nc(OCC3CCCN3C)nc3c2CCN(c2cccc4cccc(Cl)c24)C3)CC1CC#N (stereo not given) + Cc1c(S(C)(=O)=O)c(-c2cc(F)cc(N3CCN(c4ccc(NS(=O)(=O)c5ccc(NC(CCN6CCC(C(=O)OCCCP(=O)(O)O)CC6)CSc6ccccc6)c(S(=O)(=O)C(F)(F)F)c5)cc4)CC3)c2)c(-c2ccc(Cl)cc2)n1C(C)C
- viability, T/C [1]: 85.7%
- viability, T/C [2]: 91%
- viability, T/C [3]: 93.2%
- viability, T/C [4]: 85.9%
- viability, T/C (second compound 0.1 µM, first compound 3.16 µM): 19.7%
- viability, T/C (second compound 0.1 µM, first compound 10 µM): 0.11%
- viability, T/C [5]: 76.3%
- viability, T/C [6]: 96.2%
- viability, T/C [7]: 95%
- viability, T/C [8]: 90.5%
- viability, T/C (second compound 0.316 µM, first compound 3.16 µM): 19.7%
- viability, T/C (second compound 0.316 µM, first compound 10 µM): 0.13%
- viability, T/C [9]: 83.2%
- viability, T/C [10]: 84.9%
- viability, T/C [11]: 97.1%
- viability, T/C [12]: 91.5%
- viability, T/C (second compound 1 µM, first compound 3.16 µM): 19.5%
- viability, T/C (second compound 1 µM, first compound 10 µM): 0.12%
- viability, T/C [13]: 101%
- viability, T/C [14]: 90.3%
- viability, T/C (second compound 3.16 µM, first compound 0.316 µM): 92.1%
- viability, T/C (second compound 3.16 µM, first compound 1 µM): 82.6%
- viability, T/C (second compound 3.16 µM, first compound 3.16 µM): 20.3%
- viability, T/C (second compound 3.16 µM, first compound 10 µM): 0.12%
- viability, T/C [15]: 115%
- viability, T/C [16]: 107%
- viability, T/C (second compound 10 µM, first compound 0.316 µM): 96.5%
- viability, T/C (second compound 10 µM, first compound 1 µM): 100%
- viability, T/C (second compound 10 µM, first compound 3.16 µM): 24.4%
- viability, T/C (second compound 10 µM, first compound 10 µM): 0.18%

- IC50 (second compound 0.01 µM): 358 nM
- IC50 (second compound 0.0316 µM): 394 nM
- IC50 (second compound 0.1 µM): 387 nM
- IC50 (second compound 0.316 µM): 410 nM
- IC50 (second compound 1 µM): 343 nM
Structure (SMILES): COc1c(OCCCN2CCOCC2)ccc2c3n(c(=NC(=O)c4cnc(N)nc4)nc12)CCN3 + CNC(C)C(=O)NC1CN(S(=O)(=O)c2cccc(S(=O)(=O)N3CCC4CCC(C(=O)NC(c5ccccc5)c5ccccc5)N4C(=O)C(NC(=O)C(C)NC)C3)c2)CCC2CCC(C(=O)NC(c3ccccc3)c3ccccc3)N2C1=O
- viability, T/C (second compound 0.01 µM, first compound 0.00316 µM): 85.2%
- viability, T/C (second compound 0.01 µM, first compound 0.01 µM): 86.4%
- viability, T/C (second compound 0.01 µM, first compound 0.0316 µM): 79.6%
- viability, T/C (second compound 0.01 µM, first compound 0.1 µM): 88.2%
- viability, T/C (second compound 0.01 µM, first compound 0.316 µM): 55.1%
- viability, T/C (second compound 0.01 µM, first compound 1 µM): 7.8%
- viability, T/C (second compound 0.0316 µM, first compound 0.00316 µM): 98.4%
- viability, T/C (second compound 0.0316 µM, first compound 0.01 µM): 92.1%
- viability, T/C (second compound 0.0316 µM, first compound 0.0316 µM): 89.3%
- viability, T/C (second compound 0.0316 µM, first compound 0.1 µM): 85.3%
- viability, T/C (second compound 0.0316 µM, first compound 0.316 µM): 59.3%
- viability, T/C (second compound 0.0316 µM, first compound 1 µM): 8.15%
- viability, T/C [17]: 104%
- viability, T/C [18]: 98.6%
- viability, T/C [1]: 86.3%
- viability, T/C [2]: 81.8%
- viability, T/C [3]: 61.5%
- viability, T/C [4]: 8.94%
- viability, T/C [19]: 89.5%
- viability, T/C [20]: 93.2%
- viability, T/C [5]: 97.4%
- viability, T/C [6]: 83.6%
- viability, T/C [7]: 62.6%
- viability, T/C [8]: 7.92%
- viability, T/C [21]: 102%
- viability, T/C [22]: 105%
- viability, T/C [9]: 99.8%
- viability, T/C [10]: 79%
- viability, T/C [11]: 54.5%
- viability, T/C [12]: 8.06%

- IC50 (second compound 0.1 µM): 17.2 nM
- IC50 (second compound 0.316 µM): 26.4 nM
- IC50 (second compound 1 µM): 17.2 nM
- IC50 (second compound 3.16 µM): 21.5 nM
- IC50 (second compound 10 µM): 28.7 nM
Structure (SMILES): Cn1ncnc1[C@H]1c2n[nH]c(=O)c3cc(F)cc(c23)N[C@@H]1c1ccc(F)cc1 + Cc1c(S(C)(=O)=O)c(-c2cc(F)cc(N3CCN(c4ccc(NS(=O)(=O)c5ccc(NC(CCN6CCC(C(=O)OCCCP(=O)(O)O)CC6)CSc6ccccc6)c(S(=O)(=O)C(F)(F)F)c5)cc4)CC3)c2)c(-c2ccc(Cl)cc2)n1C(C)C
- viability, T/C (second compound 0.1 µM, first compound 0.000316 µM): 85.5%
- viability, T/C (second compound 0.1 µM, first compound 0.001 µM): 78.4%
- viability, T/C [17]: 66.3%
- viability, T/C [18]: 53.1%
- viability, T/C [1]: 47.5%
- viability, T/C [2]: 29.1%
- viability, T/C (second compound 0.316 µM, first compound 0.000316 µM): 105%
- viability, T/C (second compound 0.316 µM, first compound 0.001 µM): 77.6%
- viability, T/C [19]: 85.9%
- viability, T/C [20]: 58.5%
- viability, T/C [5]: 54.2%
- viability, T/C [6]: 26.6%
- viability, T/C (second compound 1 µM, first compound 0.000316 µM): 87.1%
- viability, T/C (second compound 1 µM, first compound 0.001 µM): 91.1%
- viability, T/C [21]: 78.4%
- viability, T/C [22]: 55.3%
- viability, T/C [9]: 44.1%
- viability, T/C [10]: 27.9%
- viability, T/C (second compound 3.16 µM, first compound 0.000316 µM): 88%
- viability, T/C (second compound 3.16 µM, first compound 0.001 µM): 77.1%
- viability, T/C (second compound 3.16 µM, first compound 0.00316 µM): 77.8%
- viability, T/C (second compound 3.16 µM, first compound 0.01 µM): 66.2%
- viability, T/C [13]: 41.5%
- viability, T/C [14]: 27.9%
- viability, T/C (second compound 10 µM, first compound 0.000316 µM): 120%
- viability, T/C (second compound 10 µM, first compound 0.001 µM): 97.9%
- viability, T/C (second compound 10 µM, first compound 0.00316 µM): 82.8%
- viability, T/C (second compound 10 µM, first compound 0.01 µM): 73%
- viability, T/C [15]: 47.2%
- viability, T/C [16]: 27.9%
